Measurements from ChEMBL document CHEMBL4138254 (ACS Med Chem Lett, 2017).
Converted amounts (≈) assume the structure as drawn. Each block holds one compound with its values, some of them ahead of it.

How the values were obtained:
in vitro [1] = details: human, Caco-2
Description: Apparent permeability across apical to basolateral side in human Caco2 cells at 10 uM measured up to 90 mins

physchem [2] = details: pH 4.5 buffer solution
Description: Aqueous solubility of the compound in pH 4.5 buffer solution after 24 hrs by LC-UV analysis

Autotaxin [3] = target: T1, Autotaxin (Rattus norvegicus, UniProt Q64610); assay: Inhibition of ATX in rat whole blood using LPA 17:0 as substrate after 1 hr by LC-MS/MS analysis
Autotaxin [4] = target: T1, Autotaxin; assay: Inhibition of recombinant rat ATX using LPC 18:1 as substrate after 2 hrs by rapidfire/MS-based analysis
physchem [5] = details: pH 2.2 buffer solution
Description: Aqueous solubility of the compound in pH 2.2 buffer solution after 24 hrs by LC-UV analysis

physchem [6] = details: pH 6.8 buffer solution
Description: Aqueous solubility of the compound in pH 6.8 buffer solution after 24 hrs by LC-UV analysis

[7] = target: Voltage-gated inwardly rectifying potassium channel KCNH2 (Homo sapiens, UniProt Q12809)
Description: Inhibition of human ERG expressed in HEK293 cells by patch clamp assay

in vitro [8] = details: rat, liver microsomes
Description: Clearance in rat liver microsomes at 1 uM in presence of NADPH by LC-MS/MS analysis relative to hepatic blood flow

in vitro [9] = details: human, liver microsomes
Description: Clearance in human liver microsomes at 1 uM in presence of NADPH by LC-MS/MS analysis relative to hepatic blood flow

[10] = Tmax in Han Wistar rat at 10 mg/kg, po; assay type: ADME, organism-based; details: in vivo
[11] = Half life in Han Wistar rat at 10 mg/kg, po; assay type: ADME, organism-based; details: in vivo
[12] = Volume of distribution at steady state in Han Wistar rat at 1 mg/kg, iv; assay type: ADME, organism-based; details: in vivo, read-out: Vdss
Rattus norvegicus [13] = assay: In vivo inhibition of ATX in Han Wistar rat assessed as decrease in plasma LPA 18:0 species level measured up to 24 hrs by LC-MS/MS analysis relative to control; assay type: functional
[14] = target: 5-hydroxytryptamine receptor 2A (Homo sapiens) (UniProt P28223); assay: Inhibition of recombinant human 5-HT2A receptor at 10 uM after 60 mins by scintillation counting analysis relative to control
Rattus norvegicus [15] = assay: In vivo inhibition of ATX in Han Wistar rat assessed as decrease in plasma LPA 18:1 species level measured up to 24 hrs by LC-MS/MS analysis relative to control; assay type: functional
Rattus norvegicus [16] = assay: In vivo inhibition of ATX in Han Wistar rat assessed as decrease in plasma LPA 20:4 species level measured up to 24 hrs by LC-MS/MS analysis relative to control; assay type: functional
Rattus norvegicus [17] = assay: Dose normalized Cmax in Han Wistar rat at 10 mg/kg, po; assay type: ADME, organism-based; details: in vivo
L-type calcium channel = L-type calcium channel (Homo sapiens, UniProt O60840+Q01668+Q13698+Q13936); assay: Inhibition of L-type calcium channel (unknown origin) at 10 uM relative to control; assay type: protein assay
Rattus norvegicus [18] = assay: In vivo inhibition of ATX in Han Wistar rat assessed as decrease in plasma LPA species level measured up to 24 hrs by LC-MS/MS analysis; assay type: functional, organism-based
Rattus norvegicus [19] = assay: In vivo inhibition of ATX in Han Wistar rat assessed as decrease in plasma LPA 18:2 species level measured up to 24 hrs by LC-MS/MS analysis relative to control; assay type: functional
Rattus norvegicus [20] = assay: Dose normalized AUC in Han Wistar rat at 1 mg/kg, iv; assay type: ADME, organism-based; details: in vivo
Rattus norvegicus [21] = assay: Dose normalized AUC in Han Wistar rat at 10 mg/kg, po; assay type: ADME, organism-based; details: in vivo
[22] = target: Sodium-dependent noradrenaline transporter (Homo sapiens) (UniProt P23975); assay: Inhibition of norepinephrine transporter (unknown origin) at 10 uM relative to control
[23] = Protein binding in rat plasma; assay type: ADME, cell-free; details: read-out: PPB
[24] = Protein binding in human plasma; assay type: ADME, cell-free; details: read-out: PPB
[25] = Half life in Han Wistar rat at 1 mg/kg, iv; assay type: ADME, organism-based; details: in vivo
Homo sapiens = organism: Homo sapiens; assay: Inhibition of sodium channel site 2 (unknown origin) at 10 uM relative to control
[26] = Oral bioavailability in Han Wistar rat at 10 mg/kg; assay type: ADME, organism-based; details: in vivo
Rattus norvegicus [27] = assay: In vivo inhibition of ATX in Han Wistar rat assessed as decrease in plasma LPA 16:0 species level measured up to 24 hrs by LC-MS/MS analysis relative to control; assay type: functional
Rattus norvegicus [28] = assay: Clearance in Han Wistar rat at 1 mg/kg, iv relative to hepatic blood flow; assay type: ADME, organism-based; details: in vivo

Sequence of Voltage-gated inwardly rectifying potassium channel KCNH2 (Q12809 whole entry): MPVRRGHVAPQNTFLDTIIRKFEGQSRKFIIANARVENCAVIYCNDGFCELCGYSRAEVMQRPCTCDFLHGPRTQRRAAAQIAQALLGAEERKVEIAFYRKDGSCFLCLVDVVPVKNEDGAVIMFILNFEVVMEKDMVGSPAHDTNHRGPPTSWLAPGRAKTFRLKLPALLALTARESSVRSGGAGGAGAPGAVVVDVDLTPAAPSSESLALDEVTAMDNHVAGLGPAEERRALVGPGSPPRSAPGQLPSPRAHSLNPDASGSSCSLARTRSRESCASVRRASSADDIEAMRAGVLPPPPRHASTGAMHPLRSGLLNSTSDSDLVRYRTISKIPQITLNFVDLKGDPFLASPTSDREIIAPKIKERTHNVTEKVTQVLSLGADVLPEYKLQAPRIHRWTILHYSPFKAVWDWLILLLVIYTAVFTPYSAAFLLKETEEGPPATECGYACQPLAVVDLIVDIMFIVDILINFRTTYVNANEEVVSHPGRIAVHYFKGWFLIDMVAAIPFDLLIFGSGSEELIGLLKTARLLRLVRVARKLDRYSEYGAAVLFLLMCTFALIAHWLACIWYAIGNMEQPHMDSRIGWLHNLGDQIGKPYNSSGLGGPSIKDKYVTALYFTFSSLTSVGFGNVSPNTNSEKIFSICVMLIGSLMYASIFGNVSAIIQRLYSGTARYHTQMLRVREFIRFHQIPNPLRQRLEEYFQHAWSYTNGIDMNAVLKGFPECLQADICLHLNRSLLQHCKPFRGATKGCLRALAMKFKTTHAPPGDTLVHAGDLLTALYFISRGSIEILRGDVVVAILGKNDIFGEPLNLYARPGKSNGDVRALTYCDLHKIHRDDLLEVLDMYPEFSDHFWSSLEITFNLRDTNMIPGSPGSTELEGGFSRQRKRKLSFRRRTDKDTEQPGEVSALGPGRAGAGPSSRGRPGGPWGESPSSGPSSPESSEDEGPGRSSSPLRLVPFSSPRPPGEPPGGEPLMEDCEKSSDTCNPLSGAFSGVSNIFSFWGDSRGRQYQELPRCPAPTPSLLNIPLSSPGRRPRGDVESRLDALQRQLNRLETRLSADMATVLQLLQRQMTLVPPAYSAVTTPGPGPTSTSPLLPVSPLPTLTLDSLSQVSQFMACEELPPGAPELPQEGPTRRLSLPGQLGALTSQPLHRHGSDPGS
Sequence of 5-hydroxytryptamine receptor 2A (Homo sapiens) (P28223 whole entry): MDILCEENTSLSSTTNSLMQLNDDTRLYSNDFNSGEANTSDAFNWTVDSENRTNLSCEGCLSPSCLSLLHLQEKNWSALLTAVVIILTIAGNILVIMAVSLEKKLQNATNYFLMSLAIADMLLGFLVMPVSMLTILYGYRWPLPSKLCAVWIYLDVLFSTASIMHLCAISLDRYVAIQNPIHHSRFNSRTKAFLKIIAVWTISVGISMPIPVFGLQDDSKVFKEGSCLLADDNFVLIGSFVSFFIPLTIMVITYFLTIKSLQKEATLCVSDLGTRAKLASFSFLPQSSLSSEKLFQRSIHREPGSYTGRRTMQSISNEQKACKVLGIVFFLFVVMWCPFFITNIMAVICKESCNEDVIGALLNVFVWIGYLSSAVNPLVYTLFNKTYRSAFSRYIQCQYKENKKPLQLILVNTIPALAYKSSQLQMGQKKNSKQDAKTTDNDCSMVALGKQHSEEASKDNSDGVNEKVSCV
Sequence of Sodium-dependent noradrenaline transporter (Homo sapiens) (P23975 whole entry): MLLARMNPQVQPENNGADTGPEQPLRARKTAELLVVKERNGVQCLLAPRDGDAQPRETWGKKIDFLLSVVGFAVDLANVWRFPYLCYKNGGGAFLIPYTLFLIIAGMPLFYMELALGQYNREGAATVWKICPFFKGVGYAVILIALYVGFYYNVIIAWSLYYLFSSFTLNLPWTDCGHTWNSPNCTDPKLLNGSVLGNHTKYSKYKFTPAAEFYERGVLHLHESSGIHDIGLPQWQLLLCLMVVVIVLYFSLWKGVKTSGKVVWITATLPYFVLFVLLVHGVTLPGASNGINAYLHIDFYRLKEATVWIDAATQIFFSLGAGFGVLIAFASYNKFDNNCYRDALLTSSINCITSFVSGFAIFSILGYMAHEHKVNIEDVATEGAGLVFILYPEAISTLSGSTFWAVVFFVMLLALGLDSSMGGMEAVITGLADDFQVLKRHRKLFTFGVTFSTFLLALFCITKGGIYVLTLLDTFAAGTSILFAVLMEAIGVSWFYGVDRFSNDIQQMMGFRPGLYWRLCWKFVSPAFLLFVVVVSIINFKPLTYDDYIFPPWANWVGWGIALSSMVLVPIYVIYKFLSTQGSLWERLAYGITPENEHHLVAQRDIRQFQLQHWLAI

Compound: Cc1ccc(COC(=O)N2C[C@@H]3[C@@H](CNC(=O)c4ccc5[nH]c(=O)oc5c4)[C@@H]3C2)nc1
Papp A→B at 1.5 h, 10 µM (in vitro [1]): 1 ×10⁻⁶ cm/s
solubility at 24 h (physchem [2]): 66 µg/mL (≈ 156 µM)
IC50 [7]: > 10000 nM
IC50 (Autotaxin [3]): 1610 nM
IC50 (Autotaxin [4]): 1530 nM
solubility at 24 h (physchem [5]): > 92 µg/mL
hepatic extraction ratio at 1 µM (in vitro [8]): < 0.22
solubility at 24 h (physchem [6]): 56 µg/mL (≈ 133 µM)
hepatic extraction ratio at 1 µM (in vitro [9]): 0.25

Compound: N#Cc1cc(COC(=O)N2C[C@@H]3[C@@H](CNC(=O)N4CCc5c(O)noc5C4)[C@@H]3C2)cc(C(=O)OC(F)(F)F)c1
solubility at 24 h (physchem [2]): < 1 µg/mL
IC50 [7]: > 10000 nM
IC50 (Autotaxin [4]): 10 nM
solubility at 24 h (physchem [5]): < 1 µg/mL
hepatic extraction ratio at 1 µM (in vitro [8]): < 0.22
solubility at 24 h (physchem [6]): > 113 µg/mL
hepatic extraction ratio at 1 µM (in vitro [9]): < 0.23

Compound: O=C(NC[C@@H]1[C@H]2CN(C(=O)N3CCc4c(Cl)cc(Cl)cc4C3)C[C@@H]12)c1ccc2[nH]c(=O)oc2c1
Papp A→B at 1.5 h, 10 µM (in vitro [1]): 47 ×10⁻⁶ cm/s
solubility at 24 h (physchem [2]): < 1 µg/mL
IC50 (Autotaxin [4]): 82.6 nM
solubility at 24 h (physchem [5]): < 1 µg/mL
hepatic extraction ratio at 1 µM (in vitro [8]): 0.53
solubility at 24 h (physchem [6]): < 1 µg/mL

Compound: CC(OC(=O)N1C[C@@H]2[C@@H](CNC(=O)c3ccc4[nH]c(=O)oc4c3)[C@@H]2C1)c1cc(Cl)cc(Cl)c1 (stereo partly specified)
Papp A→B at 1.5 h, 10 µM (in vitro [1]): 118 ×10⁻⁶ cm/s
solubility at 24 h (physchem [2]): < 1 µg/mL
IC50 (Autotaxin [3]): 208 nM
IC50 (Autotaxin [4]): 66.9 nM
solubility at 24 h (physchem [5]): < 1 µg/mL
solubility at 24 h (physchem [6]): < 1 µg/mL

The remaining compounds from weak to strong by IC50 (Autotaxin [4]), led by results:

IC50 (Autotaxin [3]): 6.9 nM
IC50 (Autotaxin [4]): 49 nM
Compound: CC(C)(C)OC(=O)N1CCCC(COC(=O)N2C[C@@H]3[C@@H](CNC(=O)c4ccc5[nH]c(=O)oc5c4)[C@@H]3C2)C1 (stereo partly specified)

Papp A→B at 1.5 h, 10 µM (in vitro [1]): 64 ×10⁻⁶ cm/s
solubility at 24 h (physchem [2]): < 1 µg/mL
IC50 (Autotaxin [3]): 2400 nM
IC50 (Autotaxin [4]): 4.8 nM
solubility at 24 h (physchem [5]): < 1 µg/mL
hepatic extraction ratio at 1 µM (in vitro [8]): > 0.22
solubility at 24 h (physchem [6]): < 1 µg/mL
Compound: O=C(NC[C@@H]1[C@H]2CN(C(=O)C3CC3c3cc(Cl)cc(Cl)c3)C[C@@H]12)c1ccc2[nH]c(=O)oc2c1 (stereo partly specified)
IC50 [7]: 4700 nM

Tmax [10]: 1.7 h
half-life [11]: 3.4 h
Vd [12]: 0.9 L/kg
inhibition [14]: 55%
Papp A→B at 1.5 h, 10 µM (in vitro [1]): 9 ×10⁻⁶ cm/s
solubility at 24 h (physchem [2]): < 1 µg/mL
Cmax/dose (Rattus norvegicus [17]): 149 nM
inhibition at 10 µM (L-type calcium channel): 80%
IC50 (Rattus norvegicus [18]): 100 nM
AUC/dose (Rattus norvegicus [20]): 2320 nM·h
AUC/dose (Rattus norvegicus [21]): 675 nM·h
inhibition [22]: 61%
IC50 (Autotaxin [3]): 96 nM
fraction unbound [23]: < 0.002
IC50 (Autotaxin [4]): 3.4 nM
solubility at 24 h (physchem [5]): < 1 µg/mL
fraction unbound [24]: < 0.002
solubility at 24 h (physchem [6]): < 1 µg/mL
half-life [25]: 1.8 h
inhibition (Homo sapiens): 66%
bioavailability [26]: 30%
CL (Rattus norvegicus [28]): 10%
Compound: O=C(NC[C@@H]1[C@H]2CN(C(=O)OCc3cc(C(F)(F)F)cc(C(F)(F)F)c3)C[C@@H]12)c1ccc2[nH]nnc2c1 [BI 2545]
inhibition (INH) (Rattus norvegicus [13]): <=90%
inhibition (INH) (Rattus norvegicus [15]): <=90%
inhibition (INH) (Rattus norvegicus [16]): <=90%
inhibition (INH) (Rattus norvegicus [19]): <=90%
IC50 [7]: > 10000 nM
inhibition (INH) (Rattus norvegicus [27]): <=90%

Papp A→B at 1.5 h, 10 µM (in vitro [1]): 108 ×10⁻⁶ cm/s
solubility at 24 h (physchem [2]): < 1 µg/mL
IC50 (Autotaxin [3]): 4.5 nM
IC50 (Autotaxin [4]): 2.3 nM
solubility at 24 h (physchem [5]): < 1 µg/mL
solubility at 24 h (physchem [6]): < 1 µg/mL
Compound: O=C(NC[C@@H]1[C@H]2CN(C(=O)OCc3cc(C(F)(F)F)cc(C(F)(F)F)c3)C[C@@H]12)c1ccc2[nH]c(=O)oc2c1

Papp A→B at 1.5 h, 10 µM (in vitro [1]): 8 ×10⁻⁶ cm/s
solubility at 24 h (physchem [2]): < 1 µg/mL
IC50 (Autotaxin [3]): 18 nM
IC50 (Autotaxin [4]): 1.5 nM
solubility at 24 h (physchem [5]): < 1 µg/mL
hepatic extraction ratio at 1 µM (in vitro [8]): 0.28
solubility at 24 h (physchem [6]): < 1 µg/mL
hepatic extraction ratio at 1 µM (in vitro [9]): 0.29
Compound: N#Cc1cc(COC(=O)N2C[C@@H]3[C@@H](CNC(=O)c4ccc5[nH]nnc5c4)[C@@H]3C2)cc(C(=O)OC(F)(F)F)c1
IC50 [7]: > 10000 nM
